What all share (assay type): cell-based
In experiment [1] the test system is Colorectal carcinoma HCT116 cells. Kind of experiment: HCT116 + ETR1 cell death assay (MTT, 72 hours). As to conditions: with HGS ETR1 40 ng/ml. On the procedure: Colorectal carcinoma HCT116 cells were cultured as monolayers in 96 well plates at a density of 2000 cells per well in McCoy's 5a medium (HyClone) supplemented with 2.2 g/L sodium bicarbonate (Gibco), 10% FBS (HyClone) and 1% penecillin/streptomycin (HyClone). 24 hours later, triplicate wells were treated with HGS ETR1 (40 ng/ml) in combination with compound. Cells were incubated in the presence of compound and HGS agonistic Trail receptor antibody, ETR1 (Mapatumamab, 40 ng/ml) for 72 hours. Metabolic viability of remaining cells was assessed by MTT (thiazolyl blue tetrazolium bromide, Sigma) assay.
(§1) EC50 values (50% cell survival in the presence of compound as compared to untreated controls) were calculated from survival curves using BioAssay software (CambridgeSoft, HCT116 and SKOV3 SAR) and GraphPad Prism (Graph Pad Software Inc., Synoviocyte SAR).

The test system of experiment [2] is Ovarian adenocarcinoma SKOV3 cells. As to the kind of experiment: SKOV3 cell death assay (MTT, 72 hours). As to conditions: Homo sapiens, SK-OV-3, compound alone. Here is the method:
Ovarian adenocarcinoma SKOV3 cells were cultured as monolayers in McCoy's 5a medium (HyClone) supplemented with 2.2 g/L sodium bicarbonate (Gibco), 10% FBS (HyClone) and 1% penicillin/streptomycin (HyClone). Cells were seeded in 96 well plates at 5000 cells/well. After 24 hours in culture, cells were treated with compound. Cells were incubated in the presence of compound for 72 hours. Metabolic viability of remaining cells was assessed by MTT (thiazolyl blue tetrazolium bromide, Sigma) assay.
as §1

The test system of experiment [3] is Rheumatoid arthritis human fibroblast-like synoviocytes (HFLS-RA). As to the kind of experiment: Synoviocytes + Fas antibody cell survival assay (Cell Titer-Glo). As to conditions: with 300 ng/ml anti-human CD95 (Fas) antibody CH-11, 72 hours, read-out: EC50 synoviocyctes + FAS. Here is the method: Rheumatoid arthritis human fibroblast-like synoviocytes (HFLS-RA, Cell Applications Inc.) were seeded in 96-well plates at 3000 cells per well in complete synoviocyte growth medium (Cell Applications Inc.) one day prior to treatment. Triplicate wells were treated for 72 hours compound in combination with 300 ng/ml anti-human CD95 (Fas) antibody (clone CH-11, Beckman Coulter/Immunotech). Cell survival was measured by Cell Titer-Glo Luminescent Assay (Promega).
as §1

Some results are limits rather than exact numbers.

As to `CN[C@@H](C)C(=O)N[C@H](C(=O)N1CCC[C@H]1CN(CCc1ccccc1)C(=O)CNC(=O)c1ccc(-c2ccc(C(=O)NCC(=O)N(CCc3ccccc3)C[C@@H]3CCCN3C(=O)[C@@H](NC(=O)[C@H](C)NC)C3CCCCC3)cc2)cc1)C1CCCCC1` [Compound 2], the concentration for a half-maximal effect (EC50) in experiment [1], in experiment [2] and in experiment [3] was less than 0.1 µM each time.
Turning to `CN[C@@H](C)C(=O)N[C@H](C(=O)N1CCC[C@H]1CN(CCc1ccc(F)cc1)C(=O)c1ccc(-c2ccc(C(=O)N(CCc3ccc(F)cc3)C[C@@H]3CCCN3C(=O)[C@@H](NC(=O)[C@H](C)NC)C3CCCCC3)cc2)cc1)C1CCCCC1` [Compound 6], the concentration giving a half-maximal response (EC50) in experiment [1], in experiment [2] and in experiment [3] was less than 0.1 µM in each case.
In the case of `CN[C@@H](C)C(=O)N[C@H](C(=O)N1CCC[C@H]1CN(CCc1ccc(F)cc1)C(=O)CNC(=O)c1ccc(-c2ccc(C(=O)NCC(=O)N(CCc3ccc(F)cc3)C[C@@H]3CCCN3C(=O)[C@@H](NC(=O)[C@H](C)NC)C3CCCCC3)cc2)cc1)C1CCCCC1` [Compound 8], the 50% effective concentration (EC50) in experiment [1], in experiment [2] and in experiment [3] was less than 0.1 µM throughout.
On to `CN[C@@H](C)C(=O)N[C@H](C(=O)N1CCC[C@H]1CN(CCc1ccc(F)cc1)C(=O)c1ccc2cc(C(=O)N(CCc3ccc(F)cc3)C[C@@H]3CCCN3C(=O)[C@@H](NC(=O)[C@H](C)NC)C3CCCCC3)ccc2c1)C1CCCCC1` [Compound 11], for which the EC50 in experiment [1] and in experiment [3] was less than 0.1 µM throughout.
Take `CN[C@@H](C)C(=O)N[C@H](C(=O)N1CCC[C@H]1CN(CCc1ccccc1)C(=O)CNC(=O)c1ccc(-c2ccc(C(=O)NCC(=O)N(CCc3ccccc3)C[C@@H]3CCCN3C(=O)[C@@H](NC(=O)[C@H](C)NC)C3CCCC3)cc2)cc1)C1CCCC1` [Compound 17]: the EC50 in experiment [1], in experiment [2] and in experiment [3] was less than 0.1 µM throughout.
For the compound `CN[C@@H](C)C(=O)N[C@H](C(=O)N1CCC[C@H]1CN(CCc1ccccc1)C(=O)c1ccc(-c2ccc(C(=O)N(CCc3ccccc3)C[C@@H]3CCCN3C(=O)[C@@H](NC(=O)[C@H](C)NC)C3CCCCC3)cc2)cc1)C1CCCCC1` [Compound 18], the EC50 in experiment [1] and in experiment [3] was less than 0.1 µM in each case.
For the compound `CN[C@@H](C)C(=O)N[C@H](C(=O)N1CCC[C@H]1CN(CCc1ccccc1)C(=O)c1ccc2cc(C(=O)N(CCc3ccccc3)C[C@@H]3CCCN3C(=O)[C@@H](NC(=O)[C@H](C)NC)C3CCC3)ccc2c1)C1CCC1` [Compound 19], the 50% effective concentration (EC50) in experiment [1] and in experiment [3] was less than 0.1 µM each time.
With `CN[C@@H](C)C(=O)N[C@H](C(=O)N1CCC[C@H]1CN(CCc1ccccc1)C(=O)c1ccc2cc(C(=O)N(CCc3ccccc3)C[C@@H]3CCCN3C(=O)[C@@H](NC(=O)[C@H](C)NC)C3CC3)ccc2c1)C1CC1` [Compound 20], the figures for the EC50 in experiment [1] and in experiment [3] were less than 0.1 µM and more than 0.1 µM, respectively.
The like results for `CN[C@@H](C)C(=O)N[C@H](C(=O)N1CCC[C@H]1CN(CCc1ccccc1)C(=O)c1ccc(-c2ccc(C(=O)N(CCc3ccccc3)C[C@@H]3CCCN3C(=O)[C@@H](NC(=O)[C@H](C)NC)C3CCC3)cc2)cc1)C1CCC1` [Compound 21] were, in that order, less than 0.1 µM and less than 0.1 µM.
The like results for `CN[C@@H](C)C(=O)N[C@H](C(=O)N1CCC[C@H]1CN(CCc1ccccc1)C(=O)c1ccc(-c2ccc(C(=O)N(CCc3ccccc3)C[C@@H]3CCCN3C(=O)[C@@H](NC(=O)[C@H](C)NC)C3CC3)cc2)cc1)C1CC1` [Compound 22] were, in that order, less than 0.1 µM and less than 0.1 µM.
The like results for `CN[C@@H](C)C(=O)N[C@H](C(=O)N1CCC[C@H]1CN(CCc1ccccc1)C(=O)c1ccc(-c2ccc(C(=O)N(CCc3ccccc3)C[C@@H]3CCCN3C(=O)[C@@H](NC(=O)[C@H](C)NC)C3CCCC3)cc2)cc1)C1CCCC1` [Compound 23] were, in that order, less than 0.1 µM and less than 0.1 µM.

The record behind these values is patent publication US20110171171A1, “BRIDGED SECONDARY AMINES AND USE THEREOF AS IAP BIR DOMAIN BINDING COMPOUNDS” (Aegera Therapeutics, Inc., priority 2008, published 2011).
